Experimental findings from publication PMC11068563, “The MCU and MCUb amino-terminal domains tightly interact: mechanisms for low conductance assembly of the mitochondrial calcium uniporter complex” (iScience, 2024) are described below.

In one assay the target is T1, MCUb-NTD (MCUb58-159) (Homo sapiens, UniProt Q9NWR8).
T1 construct: N-terminal domain, residues 58-159; pET-28a, E. coli BL21(DE3) codon plus; N-terminal 6xHis tag cut with thrombin
T1 sequence (Q9NWR8 58-159): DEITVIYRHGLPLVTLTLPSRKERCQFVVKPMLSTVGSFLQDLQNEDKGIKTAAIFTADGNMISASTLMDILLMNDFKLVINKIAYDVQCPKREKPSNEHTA
Briefly: ANS fluorescence titration, one-site fit. The format is binding. The conditions noted are these: read-out: apparent KD.

Assay [1] addresses T2, MCU-NTD-fluorescein (MCU residues 72-189 labelled with fluorescein-MTS at Cys97) (human, UniProt Q8NE86-1 72-189, fluorescein (fluorescein-methane thiosulfonate) on Cys97).
T2 construct: mitochondrial calcium uniporter (MCU), Homo sapiens, GenBank NP_612366.1, residues 72-189 (amino-terminal domain); Same chain as m2, with the label; also called fluorescein-MCU-NTD; MCU_(72-189) labeled
T2 sequence (looked up): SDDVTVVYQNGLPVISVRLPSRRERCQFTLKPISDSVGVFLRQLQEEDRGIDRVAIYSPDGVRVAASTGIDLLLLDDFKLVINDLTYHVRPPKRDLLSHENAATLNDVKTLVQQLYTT
As to the kind of experiment: other fluorescence titration; steady-state fluorescein fluorescence; 0.1 uM MCU-NTD-fluorescein titrated with MCUb-NTD; 20 mM Tris (pH 8.5), 150 mM NaCl, 1 mM DTT, 0.0001% (v/v) NP-40, 22.5°C; one-site model. The conditions noted are these: both partners purified.

Consider `O=S(=O)(O)c1cccc2cccc(Nc3ccccc3)c12` [ANS, 8-Anilinonapthalene 1-sulfonic acid], for which, on MCUb-NTD (MCUb58-159), the Kd is 1500 ± 600 nM.

B1: MCUb amino-terminal domain (MCUb-NTD), MCUb residues 58-159 (domain or fragment, human, UniProt Q9NWR8 58-159, looked up)
chain: T1 sequence (Q9NWR8 58-159)
notes: MCU dominant negative beta subunit (MCUb), Homo sapiens, GenBank NP_060388.2, residues 58-159 (amino-terminal domain); Cloned into pET-28a by NheI and XhoI; printed as 6xHis-MCUb_(58-159); theoretical monomer mass 12.0098 kDa and 107 expected backbone amides are printed, so a few vector residues probably remain after thrombin cleavage (surmise); also called MCUb_(58-159); 15N-MCUb-NTD; source: E. …
B1 came in with a Kd in assay [1] of 125 nM.
